Assay results as given in ChEMBL document CHEMBL1201862, “PubChem BioAssay data set” (2004).
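96-well plates; 48 h exposure; 5 concentrations. Endpoints by linear interpolation between flanking doses. Not reached: highest tested concentration assigned. The concentration for 50% growth inhibition is given as GI50.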 Calls of active or inactive are those of the source. Cut-off read from the data, not from the text of the source: active = GI50 up to about 1.1 µM and inactive = higher.

How the values were obtained:
Experiment in all cases: inhibition of tumour cell growth, NCI panel, 48 h
DLD-1 = test system: DLD-1
XF498 = test system: XF498
RXF 631 = test system: RXF 631
LXFL 529 = test system: LXFL 529
HOP-18 = test system: HOP-18
DMS-114 = test system: DMS-114
SNB-78 = test system: SNB-78
DMS-273 = test system: DMS-273

Measured: GI50

CCOC(=O)/C(=C/c1cccc(C#N)c1)N(CC)CC
inactive: DLD-1 > 100 µM | XF498 > 100 µM | RXF 631 > 100 µM | LXFL 529 > 100 µM | HOP-18 > 100 µM | DMS-114 > 100 µM | SNB-78 > 100 µM

C=CC/N=C1\NC(=O)C(CC(=O)Nc2ccc(C)cc2)S1 (stereo unspecified)
inactive: DLD-1 > 100 µM | XF498 > 100 µM | RXF 631 > 100 µM | LXFL 529 > 100 µM | DMS-273 > 100 µM | HOP-18 > 100 µM | DMS-114 > 100 µM

COc1cc2c([C@@H](OC(=O)c3ccccc3)c3ccc4c(c3)OCO4)nccc2c(OC)c1OC
inactive: DLD-1 53.3 µM | XF498 13.6 µM | RXF 631 20.5 µM | LXFL 529 16.7 µM | DMS-273 32.4 µM | HOP-18 > 100 µM | DMS-114 16.4 µM | SNB-78 85.7 µM

c1cncc(C2c3[nH]c4ccccc4c3CCN2CCN2CCCCC2)c1 (stereo unspecified)
inactive: DLD-1 > 100 µM | XF498 > 100 µM | RXF 631 > 100 µM | LXFL 529 > 100 µM | DMS-273 > 100 µM | HOP-18 > 100 µM | DMS-114 > 100 µM | SNB-78 > 100 µM

CC(O)c1ccc[n+](Cc2ccccc2)c1 (stereo unspecified)
inactive: DLD-1 > 400 µM | XF498 > 400 µM | RXF 631 > 400 µM | LXFL 529 > 400 µM | DMS-273 > 400 µM | HOP-18 > 400 µM | DMS-114 > 400 µM

CCOC(=O)C(C(=O)OCC)S(C)(=O)=O
inactive: DLD-1 > 100 µM | XF498 > 100 µM | RXF 631 > 100 µM | DMS-273 > 100 µM | HOP-18 > 100 µM | DMS-114 > 100 µM

COC(=O)c1cc2cc(OC)c(OC)cc2cc(C(=O)OC)c1=O
inactive: DLD-1 > 100 µM | XF498 > 100 µM | RXF 631 > 100 µM | LXFL 529 > 100 µM | DMS-273 > 100 µM | HOP-18 > 100 µM | DMS-114 29.6 µM | SNB-78 > 100 µM
